Data set [1] concerns telemeterised Beagle dogs. As to the kind of experiment: Effect on blood pressure in telemeterised Beagle dogs. The format is in vivo, dog. The method, then: The cardiovascular effects of compounds of the present invention were investigated in telemeterised Beagle dogs in the doses 0.25, 0.50 and 1.0 mg/kg given by gavage. Amount of compound is calculated as the free base. Six dogs were used in the experiment, three males and three females.

Data set [2] addresses T1, 5-HT2A receptors (Homo sapiens, UniProt P28223). Briefly: 5-HT2A functional assay, 5-HT evoked Ca2+ release in CHO cells (FLIPR).
Description: The experiment was carried out as follows. 2 or 3 days before the experiment CHO cells expressing approximately 250 fmol/mg 5-HT2A receptors are plated at a density sufficient to yield a mono-confluent layer on the day of the experiment. […] Lacer intensity was set to a suitable level to obtain basal values of approximately 8000-10000 fluorescence units. The variation in basal fluorescence should be less than 10%. […] Test substances are added to the cells 5 minutes before the 5-HT.
The target in a further data set is T2, noradrenalin reuptake (Rattus norvegicus, UniProt Q63380).
T2 construct: rat cortical synaptosome preparation; from tissue; host or cells: rat cortical synaptosomes
As to the kind of experiment: Noradrenalin transport inhibition, [3H]NE uptake in rat cortical synaptosomes. The format is biochemical. Particulars: [3H]NE 10 nM. The method, then:
(§1) Aliquots of test compound and rat cortical synaptosome preparation were pre-incubated for 10 min/37° C., and then added [^3H]NE or [^3H]5-HT (final concentration 10 nM). Non-specific uptake was determined in the presence of 10 μM talsupram or citalopram and the total uptake was determined in the presence of buffer. Aliquots were incubated for 15 minutes at 37° C. After the incubation [^3H]NE or [^3H]5-HT taken up by synaptosomes was separated by filtration through Unifilter GF/C, presoaked in 0.1% PEI for 30 minutes, using a Tomtec CellHarvester program. Filters were washed and counted in a Wallac MicroBeta counter.

The target in data set [3] is T1, 5-HT2A receptors. As to the kind of experiment: 5-HT2A receptor affinity (MDL Pharmaservices catalogue number 271650). Format: binding. On the set-up: purchased MDL Pharmaservices 271650. Particulars: Cheng Prusoff from IC50, 5 concentrations. The method, then:
5 concentration of compound (1, 10, 30, 100, 1000 nM) were used to calculate the IC50 value. Ki was calculated from the Cheng Prusoff equation Ki=(IC50/(1+([L]/Kd)) Affinity was determined at MDL Pharmaservices catalogue number 271650.

Another data set addresses rat 5-HT2A receptor (Rattus norvegicus, UniProt P14842). As to the kind of experiment: Ki for rat versus human 5-HT2A receptor. Format: binding.
Another data set has as its target T3, serotonin reuptake (Rattus norvegicus, UniProt P31652).
T3 construct: rat cortical synaptosome preparation; from tissue; host or cells: rat cortical synaptosomes
As to the kind of experiment: Serotonin transport inhibition, [3H]5-HT uptake in rat cortical synaptosomes. The format is biochemical. Particulars: [3H]5-HT 10 nM. The method, then: as §1

Data set [4] concerns the target T4, human alpha1A-7 receptors (Homo sapiens, UniProt P35348).
T4 sequence (P35348 1-423 limits assumed): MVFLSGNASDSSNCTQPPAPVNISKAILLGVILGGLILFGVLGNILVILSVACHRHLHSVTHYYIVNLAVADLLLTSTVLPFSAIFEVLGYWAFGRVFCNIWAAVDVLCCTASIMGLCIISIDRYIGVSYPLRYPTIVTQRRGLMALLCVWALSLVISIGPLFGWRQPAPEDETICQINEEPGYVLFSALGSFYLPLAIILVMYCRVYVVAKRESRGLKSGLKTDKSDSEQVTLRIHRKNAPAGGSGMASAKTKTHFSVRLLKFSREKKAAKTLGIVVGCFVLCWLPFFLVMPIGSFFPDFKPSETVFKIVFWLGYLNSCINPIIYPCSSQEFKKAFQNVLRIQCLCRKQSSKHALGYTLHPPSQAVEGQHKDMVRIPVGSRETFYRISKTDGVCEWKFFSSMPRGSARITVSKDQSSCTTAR
Briefly: α1A functional assay, adrenaline evoked Ca2+ release in CHO cells (FLIPR). The format is cell-based. Conditions: CHO cells expressing human alpha1A-7 receptors. As for the experimental part: All cells were cultured in DMEM medium supplemented with 10% BCS, 4 mM L-glutamine (or 2 mM in the case of COS-7), and 100 units/ml penicillin plus 100 μg/ml streptomycin, at 37° C., in 5% CO2.
Twenty-four hours prior to assays, CHO cells expressing the human alpha1A-7 receptors were seeded into 384-well black wall microtiter plates coated with poly-D-lysine. Culture medium was aspirated and cells were dye-loaded with 1.5 μM Fluo-4 in assay buffer composed of Hank's Balanced Salt Solution (138 mM NaCl, 5 mM KCl, 1.3 mM CaCl2, 0.5 mM MgCl2, 0.4 mM MgSO4, 0.3 mM KH2PO4, 0.3 mM Na2HPO4, 5.6 mM glucose) plus 20 mM HEPES pH 7.4, 0.05% BSA and 2.5 mM probenicid (50 μl/well) for 1 hour in 5% CO2 at 37° C. After excess dye was discarded, cells were washed in assay buffer and layered with a final volume equal to 45 μl/well (or 30 ul/well for antagonist assay). […] Laser excitation energy was adjusted so that basal fluorescence readings were approximately 8,000 relative fluorescent units (RFU). Cells were then stimulated at room temperature with agonists diluted in assay buffer (15 μl), and RFU were measured at 1.5 second intervals over a period of 2.5 min. Maximum change in fluorescence was calculated for each well. Concentration-response curves derived from the maximum change in fluorescence were analyzed by nonlinear regression (Hill equation). […]

Another data set has as its system Rats. Briefly: Impact on sleep architecture, EEG/EMG in rats. Format: in vivo, rat. Particulars: for % of time spent in REM / % of time spent in SWS / % of time spent in Wake: second hour of recording; for sleep latency: time from injection until first consolidated sleeping episode. As for the experimental part: Rats were implanted with EEG and EMG electrodes to monitor the brain electrical activity and the muscle electrical activity, respectively. The electrodes were connected to a radio transmitter allowing a continuous collection of activity data from freely moving, undisturbed and home-caged animals. The EEG and EMG data were visually scored to determine the arousal states wake, SWS and REM sleep. A group of 10 rats were administered vehicle or the compound of the present invention corresponding to 0.4 mg/kg and 4 mg/kg of the free base. A William's square cross over design was applied so that each animal receives each treatment once.

Consider one compound from US8138220B2, “[2-(6-fluoro-1H-indol-3-ylsulfanyl)benzyl]methyl amine for the treatment of affective disorders” (H. Lundbeck A/S, priority 2006, dated 2012).

T1 sequence (P28223 whole entry): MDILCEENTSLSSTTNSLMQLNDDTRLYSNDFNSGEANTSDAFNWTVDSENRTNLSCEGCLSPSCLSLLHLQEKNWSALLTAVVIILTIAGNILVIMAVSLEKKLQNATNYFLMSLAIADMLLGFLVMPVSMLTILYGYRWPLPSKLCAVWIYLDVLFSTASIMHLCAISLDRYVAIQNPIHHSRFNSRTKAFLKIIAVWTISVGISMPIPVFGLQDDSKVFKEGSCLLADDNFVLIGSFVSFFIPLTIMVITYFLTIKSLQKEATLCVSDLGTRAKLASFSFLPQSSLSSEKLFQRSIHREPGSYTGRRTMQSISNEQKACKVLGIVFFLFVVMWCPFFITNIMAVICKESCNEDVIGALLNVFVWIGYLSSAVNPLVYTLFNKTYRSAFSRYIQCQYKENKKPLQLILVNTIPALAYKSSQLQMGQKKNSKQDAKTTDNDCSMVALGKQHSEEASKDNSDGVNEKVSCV
Sequence of rat 5-HT2A receptor (P14842 whole entry): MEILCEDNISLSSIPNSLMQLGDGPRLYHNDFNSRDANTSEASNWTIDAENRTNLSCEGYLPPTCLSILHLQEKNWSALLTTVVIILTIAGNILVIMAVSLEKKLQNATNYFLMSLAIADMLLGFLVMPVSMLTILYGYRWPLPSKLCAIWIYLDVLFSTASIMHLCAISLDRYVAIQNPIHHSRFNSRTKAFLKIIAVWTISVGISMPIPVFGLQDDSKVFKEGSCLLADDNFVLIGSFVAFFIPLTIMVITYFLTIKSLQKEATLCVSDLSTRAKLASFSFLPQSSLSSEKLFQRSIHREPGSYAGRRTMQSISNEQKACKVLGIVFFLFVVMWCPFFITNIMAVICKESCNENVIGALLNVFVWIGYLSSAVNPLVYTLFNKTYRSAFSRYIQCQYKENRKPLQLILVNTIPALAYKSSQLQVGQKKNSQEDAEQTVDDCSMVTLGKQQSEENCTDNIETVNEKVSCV
T3 sequence (P31652 whole entry): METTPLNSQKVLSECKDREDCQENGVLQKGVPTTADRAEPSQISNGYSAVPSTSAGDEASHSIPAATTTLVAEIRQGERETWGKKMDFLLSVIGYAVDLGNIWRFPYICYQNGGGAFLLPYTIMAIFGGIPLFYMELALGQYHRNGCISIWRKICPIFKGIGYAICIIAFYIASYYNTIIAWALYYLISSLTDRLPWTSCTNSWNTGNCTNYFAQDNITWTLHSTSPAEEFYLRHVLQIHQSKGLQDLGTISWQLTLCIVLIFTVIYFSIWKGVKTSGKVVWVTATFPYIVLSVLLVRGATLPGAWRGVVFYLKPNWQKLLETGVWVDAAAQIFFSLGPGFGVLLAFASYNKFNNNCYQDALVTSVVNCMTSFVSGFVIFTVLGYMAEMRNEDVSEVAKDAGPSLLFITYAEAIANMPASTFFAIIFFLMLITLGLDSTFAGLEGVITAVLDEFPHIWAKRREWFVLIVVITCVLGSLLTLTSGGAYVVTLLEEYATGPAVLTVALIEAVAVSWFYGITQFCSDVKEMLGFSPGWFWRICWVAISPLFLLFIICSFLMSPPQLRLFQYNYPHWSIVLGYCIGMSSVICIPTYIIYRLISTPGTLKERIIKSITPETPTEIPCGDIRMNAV
T2 sequence (Q63380 1-617): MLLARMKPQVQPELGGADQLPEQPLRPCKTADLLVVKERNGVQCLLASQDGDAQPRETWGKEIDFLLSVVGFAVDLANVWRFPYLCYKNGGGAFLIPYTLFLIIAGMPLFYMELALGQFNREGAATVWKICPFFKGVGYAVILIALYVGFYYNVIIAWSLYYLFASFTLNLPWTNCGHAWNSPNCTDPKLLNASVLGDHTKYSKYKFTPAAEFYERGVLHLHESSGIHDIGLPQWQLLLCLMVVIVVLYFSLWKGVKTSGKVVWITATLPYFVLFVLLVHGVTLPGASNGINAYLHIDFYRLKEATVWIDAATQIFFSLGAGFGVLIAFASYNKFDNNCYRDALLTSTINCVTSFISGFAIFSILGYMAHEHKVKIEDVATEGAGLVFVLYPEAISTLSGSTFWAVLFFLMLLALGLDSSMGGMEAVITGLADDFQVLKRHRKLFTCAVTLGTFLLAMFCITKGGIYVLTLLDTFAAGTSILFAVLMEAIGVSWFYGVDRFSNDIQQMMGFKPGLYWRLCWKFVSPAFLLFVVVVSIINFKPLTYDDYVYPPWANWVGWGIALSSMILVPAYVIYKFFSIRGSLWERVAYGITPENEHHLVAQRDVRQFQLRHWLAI

For orientation: pA2 means a measure of antagonist potency on a negative log scale. The low end stands for lower antagonist potency, the high end for higher antagonist potency. For orientation: IC50 means the concentration that inhibits the measured activity by half. Read a high IC50 as weaker potency. Broadly, the Ki is the equilibrium dissociation constant of an inhibitor or competing ligand from its target. A higher Ki goes with a looser hold on the target. On to `CNCc1ccccc1Sc1c[nH]c2cc(F)ccc12` [compounds of the present invention, [2-(6-fluoro-1H-indol-3-ylsulfanyl)benzyl]methyl amine], for which the “Systolic arterial blood pressure (Change from baseline (mean ± SD)) (10-380 min)” value is −4.26 ± 5.98 in data set [1] (0.25 mg/kg by gavage), −9.77 ± 5.39 in data set [1] (0.50 mg/kg by gavage) and −6.30 ± 6.63 in data set [1] (1.00 mg/kg by gavage). In addition, the “Systolic left ventricular pressure (Change from baseline (mean ± SD)) Post-dose period I (10-380 min)” value in data set [1] (0.25 mg/kg by gavage) is −3.82 ± 3.42^♀; in data set [1] (0.50 mg/kg by gavage), −11.13 ± 4.05^♂♀; in data set [1] (1.00 mg/kg by gavage) it was −3.08 ± 5.37^♂,♀. The Kb on 5-HT2A receptors [2] was 130 nM; in data set [4], 64 nM. Moreover, at 5-HT2A receptors [2] (schild analysis, CHO cells expressing 5-HT2A, 5-HT curves with 150, 400, 1500, 4000 nM compound), the pA2 is given as 6.88. Besides, the IC50 at noradrenalin reuptake was 4.4 nM; on serotonin reuptake it was 0.4 nM. This compound yielded a Ki on 5-HT2A receptors [3] of 14 nM. Besides, on rat 5-HT2A receptor, the “Ki rat 5-HT2A receptor higher than human 5-HT2A receptor” value is given as about 40 fold. The “% of time spent in REM” value in the data set with Rats (0.4 mg/kg free base) and in the data set on Rats (4.0 mg/kg free base) was 0.00% throughout. In addition, the “% of time spent in SWS” value is listed as 62.08% in the data set with Rats (0.4 mg/kg free base) and 69.97% with Rats (4.0 mg/kg free base). Besides, the figures for the “% of time spent in Wake” value in the data set with Rats (0.4 mg/kg free base) and with Rats (4.0 mg/kg free base) were 37.92% and 30.03%, respectively. Moreover, the sleep latency in the data set on Rats (0.4 mg/kg) was 26.43 min; in the data set on Rats (4.0 mg/kg), 20.62 min.
